Key:
Type in all cases: cell-based, human
[1] = tested on: Circulating Tumour Cells (CTCs) from a patient with sex cord stromal tumour, ovarian tumour; assay: Drug response score assay on CTCs from blood, Example 4; set-up: key to Drug response score, conc. 1 / Drug response score, conc. 2 / Drug response score, conc. 3 / Drug response score, conc. 4: normalized drug response metric (Gupta et al. 2020); conditions: for Drug response score, conc. 1: conc. 1: Cyclo 2.5 μg/ml, Vinc 10 ng/ml, Etop 1 μg/ml, Bini 100 ng/ml, Doxo 10 ng/ml; for Drug response score, conc. 1 / Drug response score, conc. 2 / Drug response score, conc. 3 / Drug response score, conc. 4: CTCs, t96h; for Drug response score, conc. 2: conc. 2: Cyclo 10 μg/ml, Vinc 20 ng/ml, Etop 4 μg/ml, Bini 200 ng/ml, Doxo 30 ng/ml; for Drug response score, conc. 3: conc. 3: Cyclo 40 μg/ml, Vinc 40 ng/ml, Etop 20 μg/ml, Bini 400 ng/ml, Doxo 90 ng/ml; for Drug response score, conc. 4: conc. 4: Cyclo 160 μg/ml, Vinc 80 ng/ml, Etop 100 μg/ml, Bini 800 ng/ml, Doxo 270 ng/ml; for effectiveness on Circulating Tumour Cells (CTCs) under laboratory conditions / Drug sensitivity as calculated by the assay (interpretation of Drug Response Scores): sex cord stromal / ovarian tumour CTCs; for Drug sensitivity as calculated by the assay (interpretation of Drug Response Scores): Table 14
Procedure: (§1) CD45^+ cells and circulating tumour cells (CTCs) were isolated from a blood sample provided by each subject.
(§2) CD45 separation was performed by adding human CD45 microbeads (50 μl/ml blood), incubating for 15 minutes at 4° C. and then processing using an AutoMACS machine. This separates the blood sample into CD45^+ and CD45^−cells in 2 separate falcons. The falcon tubes are then centrifuged at 1200 rpm for 5 minutes.
(§3) The supernatant was removed from the CD45^−falcon tube, and the CD45^−cells contacted with 100 μl of FcR block and 100 μl of CD326 (EpCAM) MicroBeads, followed by incubation at […] 4° C. for 30 minutes. The CD45^−cells were then processed using an AutoMACS machine to separate the EpCAM positive and negative cells into 2 separate falcon tubes. The EpCAM-cells were discarded. The supernatant was removed from the EpCAM^+ cells, and the cells resuspended in DMEM with 2 μl Cell Tox, 2 μl MT and 2 μl MT. 20 μl of the resuspended pellet was then added to all sample wells excluding a blank. After all wells are added to, a cell count was conducted on the […] to determine the number of circulating tumour cells (CTCs).
(§4) The different cell types were each divided equally into populations, depending on the number of drugs/concentrations to be tested and plated on a cell-culture plate pre-coated with a scaffold of polycaprolactone (PCL) electrospun fibres and incubated at 37° C., 5% CO2, for 5 to (typically 10) minutes to facilitate cell attachment. After attachment, an initial imaging step was carried out using the RealTime-Glo™ MT assay from Promega (Catalogue No. G9711)) and the CellTox™ Green Cytotoxicity Assay (Promega, Catalogue No. G8741), carried out according to manufacturer's instructions. Following this initial imagining, the immunotherapeutic and/or chemotherapeutic agents were added to the cell populations as indicated below. After 10 minutes, the imagining step was repeated. The cell populations were then incubated at 37° C., 5% CO2 for 48 hours. The imaging step was then repeated. The cell populations were then re-dosed with the same immunotherapeutic and/or chemotherapeutic agents as indicated below, and incubated at 37° C., 5% CO2 for a further 48 hours. After this second 48 hour incubation, the imagining step was repeated for a final time.
(§5) At the end of this culture period, dose response scores were calculated using a normalized drug response metric as described in Gupta et al. (Communications Biology volume 3, Article number: 42 (2020), https://doi.org/10.1038/s42003-020-0765-z). The start readout for a given immunotherapeutic or chemotherapeutic agent at a given concentration was the to readout for said immunotherapeutic or chemotherapeutic agent at a specified concentration. The end readout for a given immunotherapeutic or chemotherapeutic agent at a given concentration was the final timepoint reading (t96h) for said immunotherapeutic or chemotherapeutic agent at a specified concentration.
(§6) The positive control start readout for a given drug/concentration was the to readout for the corresponding drug at a specified concentration. The positive control end readout for the corresponding drug at a specified concentration was the final timepoint reading (t96h) for the corresponding blank well.
(§7) The negative control start and end readouts for a given immunotherapeutic or chemotherapeutic agent at a given concentration were the to and final timepoint reading (t96h) respectively for blank cell or blank immuno cell well respectively.
(§8) The sensitivity or resistance of a subject's cancer to a given immunotherapeutic or chemotherapeutic agent was determined based on the calculated drug response score as shown in Table 2.
Blood samples from a patient with sex cord stromal tumour, ovarian tumour (epitheliod neoplasm, stage 3 recurrence after surgery (resection) and previous chemotherapy) were received on 19 Jul. 2021 and tested using a 5 drug panel. […]

[2] = tested on: Circulating Tumour Cells (CTCs) from a patient with head and neck cancer (squamous cell carcinoma); assay: Drug response score assay on CTCs from blood, Example 6; conditions: for Drug response score, conc. 1: conc. 1: Ifos 0.125 μg/ml, Gemcit 2 μg/ml, Doxo 10 ng/ml, Etop 1 μg/ml, Metho 0.5 μg/ml, Capecit 200 μg/ml, Vinor 20 μg/ml; for Drug response score, conc. 1 / Drug response score, conc. 2 / Drug response score, conc. 3 / Drug response score, conc. 4: CTCs, t96h; for Drug response score, conc. 2: conc. 2: Ifos 0.25 μg/ml, Gemcit 10 μg/ml, Doxo 30 ng/ml, Etop 4 μg/ml, Metho 1 μg/ml, Capecit 300 μg/ml, Vinor 40 μg/ml; for Drug response score, conc. 3: conc. 3: Ifos 5 μg/ml, Gemcit 20 μg/ml, Doxo 90 ng/ml, Etop 20 μg/ml, Metho 2 μg/ml, Capecit 400 μg/ml, Vinor 80 μg/ml; for Drug response score, conc. 4: conc. 4: Ifos 10 μg/ml, Gemcit 40 μg/ml, Doxo 270 ng/ml, Etop 100 μg/ml, Metho 4 μg/ml, Capecit 600 μg/ml, Vinor 200 μg/ml; for effectiveness on Circulating Tumour Cells under laboratory conditions / Drug sensitivity as calculated by the assay (interpretation of Drug Response Scores): head and neck cancer CTCs; for Drug sensitivity as calculated by the assay (interpretation of Drug Response Scores): Table 20
Procedure: as §1, §2, §3, §4, §5, §6, §7, §8
Blood samples from a patient with head and neck cancer (squamous cell carcinoma) were received on 11 Mar. 2022 and tested using a 7 drug panel.

[3] = tested on: Circulating Tumour Cells (CTCs) from a patient with lung cancer (adenocarcinoma); assay: Drug response score assay on CTCs (with CD45+ cells for immunotherapy) from blood, Example 5; conditions: for Drug response score, conc. 1: conc. 1: Niv 20 μg/ml, Gm 2 μg/ml, Vin 20 μg/ml, Gf 100 ng/ml, E 0.75 μg/ml, Afa 20 ng/ml, Metho 0.5 μg/ml, Cz 200 ng/ml, Pal 40 ng/ml (CTCs); for Drug response score, conc. 1 / Drug response score, conc. 2: Pem 20 μg/ml (CTCs + CD45+ cells); for Drug response score, conc. 1 / Drug response score, conc. 2 / Drug response score, conc. 3 / Drug response score, conc. 4: t96h; for Drug response score, conc. 2: conc. 2: Niv 20 μg/ml, Gm 10 μg/ml, Vin 40 μg/ml, Gf 200 ng/ml, E 1.5 μg/ml, Afa 50 ng/ml, Metho 1 μg/ml, Cz 1000 ng/ml, Pal 80 ng/ml (CTCs); for Drug response score, conc. 3: conc. 3: Niv 80 μg/ml, Pem 100 μg/ml (CTCs + CD45+ cells), Gm 20 μg/ml, Vin 80 μg/ml, Gf 600 ng/ml, E 3 μg/ml, Afa 100 ng/ml, Metho 2 μg/ml, Cz 2000 ng/ml, Pal 160 ng/ml (CTCs); for Drug response score, conc. 4: conc. 4: Niv 160 μg/ml, Pem 160 μg/ml (CTCs + CD45+ cells), Gm 40 μg/ml, Vin 200 μg/ml, Gf 1200 ng/ml, E 6 μg/ml, Afa 150 ng/ml, Metho 4 μg/ml, Cz 4000 ng/ml, Pal 320 ng/ml (CTCs); for Drug sensitivity as calculated by the assay (interpretation of Drug Response Scores): Table 17
Procedure: as §1, §2
The supernatant was removed from the CD45^+falcon tube, and the cells resuspended in DMEM with 2 μl Cell Tox, 2 μl MT and 2 μl MT. 20 μl of the resuspended CD45^+ cells was then plated in each well which will contain an immunotherapy treatment.
as §3, §4, §5, §6, §7
The sensitivity or resistance of a subject's cancer to a given immunotherapeutic or chemotherapeutic agent was determined based on the calculated drug response score as shown in Table 2. […]

Molecule	Drug response score, conc. 1 [1]	Drug response score, conc. 2 [1]	Drug response score, conc. 3 [1]	Drug response score, conc. 4 [1]	effectiveness on Circulating Tumour Cells (CTCs) under laboratory conditions [1]	Drug sensitivity as calculated by the assay (interpretation of Drug Response Scores) [1]	Drug response score, conc. 1 [2]	Drug response score, conc. 2 [2]	Drug response score, conc. 3 [2]	Drug response score, conc. 4 [2]	effectiveness on Circulating Tumour Cells under laboratory conditions [2]	Drug sensitivity as calculated by the assay (interpretation of Drug Response Scores) [2]	Drug response score, conc. 1 [3]	Drug response score, conc. 2 [3]	Drug response score, conc. 3 [3]	Drug response score, conc. 4 [3]	effectiveness on Circulating Tumour Cells (CTCs) under laboratory conditions ([3]; lung cancer CTCs)	Drug sensitivity as calculated by the assay (interpretation of Drug Response Scores) ([3]; lung cancer CTCs)
COc1cccc2c1C(=O)c1c(O)c3c(c(O)c1C2=O)C[C@@](O)(C(=O)CO)C[C@@H]3O[C@H]1C[C@H](N)[C@H](O)[C@H](C)O1 [Doxorubicin]	0.68	0.93	0.54	0.93	show effectiveness	Sensitive (S++)	0.7699	0.9452	0.6229	0.7995	Sensitive S+	Sensitive (S+)	–	–	–	–	–	–
COc1cc([C@@H]2c3cc4c(cc3[C@@H](O[C@@H]3O[C@@H]5CO[C@@H](C)O[C@H]5[C@H](O)[C@H]3O)[C@H]3COC(=O)[C@H]23)OCO4)cc(OC)c1O [Etoposide]	0.79	1.06	1.19	1.35	not effective	Resistant	0.9372	0.6295	0.9862	0.5135	Sensitive S+	Sensitive (S+)	–	–	–	–	–	–
O=P1(NCCCl)OCCCN1CCCl (centres unmarked) [Ifosfamide]	–	–	–	–	–	–	0.7257	0.2439	0.9228	0.3682	Sensitive S+	Sensitive (S+)	–	–	–	–	–	–
Nivolumab	–	–	–	–	–	–	–	–	–	–	–	–	−0.45	−0.80	−0.12	−0.22	more effective than Pembrozulimab	S++
Pembrolizumab	–	–	–	–	–	–	–	–	–	–	–	–	−0.34	−0.15	0.05	0.24	–	S++
